Data taken from US20170190671A1, “BIS(ARYL)CATECHOL DERIVATIVES AS HERBICIDES” (E I DU PONT DE NEMOURS AND COMPANY, priority 2014, published 2017).

What was measured:
Assay in all cases: Test C postemergence
Type in all cases: in vivo
[1] = system: Italian ryegrass (Lolium multiflorum); conditions: Lolium multiflorum, post-emergence, 336 h, Postemergence, scale 0 to 100, read-out: Plant response rating, Ryegrass, Italian
Method in brief: (§1)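 Seeds sown in a loam soil and sand blend were treated preemergence; plants in peat-moss/vermiculite medium were sprayed at the 1- to 4-leaf stage (2-18 cm). Chemicals were in a non-phytotoxic surfactant-containing solvent. After 13 to 15 days in a greenhouse, injury was visually rated against controls on a 0-100 scale.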

[2] = system: barnyardgrass (Echinochloa crus-galli); conditions: Echinochloa crus-galli, post-emergence, Postemergence, scale 0 to 100, read-out: Plant response rating, Barnyardgrass
Method in brief: as §1

[3] = system: blackgrass (Alopecurus myosuroides); conditions: Alopecurus myosuroides, post-emergence, 336 h, Postemergence, scale 0 to 100, read-out: Plant response rating, Blackgrass
Method in brief: as §1

[4] = system: chickweed (common chickweed, Stellaria media); conditions: Stellaria media, post-emergence, Postemergence, scale 0 to 100, read-out: Plant response rating, Chickweed
Method in brief: as §1

corn (Zea mays) = conditions: Zea mays, post-emergence, 336 h, Postemergence, scale 0 to 100
Method in brief: as §1

[5] = system: giant foxtail (Setaria faberii); conditions: Setaria faberi, post-emergence, 336 h, Postemergence, scale 0 to 100, read-out: Plant response rating, Foxtail, Giant
Method in brief: as §1

[6] = system: johnsongrass (Sorghum halepense); conditions: Sorghum halepense, post-emergence, 336 h, Postemergence, scale 0 to 100, read-out: Plant response rating, Johnsongrass
Method in brief: as §1

[7] = system: lambsquarters (Chenopodium album); conditions: Chenopodium album, post-emergence, 336 h, Postemergence, scale 0 to 100, read-out: Plant response rating, Lambsquarters
Method in brief: as §1

[8] = system: oilseed rape (Brassica napus); conditions: Brassica napus, post-emergence, Postemergence, scale 0 to 100, read-out: Plant response rating, Oilseed Rape
Method in brief: as §1

[9] = system: pigweed (Amaranthus retroflexus); conditions: Amaranthus retroflexus, post-emergence, 336 h, Postemergence, scale 0 to 100, read-out: Plant response rating, Pigweed
Method in brief: as §1

[10] = system: ragweed (common ragweed, Ambrosia elatior); conditions: Ambrosia artemisiifolia, post-emergence, 336 h, Postemergence, scale 0 to 100, read-out: Plant response rating, Ragweed
Method in brief: as §1

soybean (Glycine max) = conditions: Glycine max, post-emergence, Postemergence, scale 0 to 100, read-out: Plant response rating, Soybean
Method in brief: as §1

[11] = system: waterhemp (common waterhemp, Amaranthus rudis); conditions: Amaranthus tuberculatus, post-emergence, Postemergence, scale 0 to 100, read-out: Plant response rating, Waterhemp
Method in brief: as §1

wild oat (Avena fatua) = conditions: Avena fatua, post-emergence, Postemergence, scale 0 to 100, read-out: Plant response rating, Oat, Wild
Method in brief: as §1

[12] = system: yellow nutsedge (Cyperus esculentus); conditions: Cyperus, post-emergence, 336 h, Postemergence, scale 0 to 100, read-out: Plant response rating, Nutsedge, Yellow
Method in brief: as §1

Structure (SMILES): Fc1cccc(Oc2ncc(Cl)cn2)c1Oc1ncc(C(F)(F)F)cn1 [Compound 43, 5-chloro-2-[5-fluoro-6-[[5-(trifluoromethyl)-2-pyrimidinyl]oxy]phenoxy]pyrimidine]
- pest or weed control at 31 g/ha ([1]; 31 g ai/ha): 0%
- pest or weed control at 62 g/ha ([1]; 62 g ai/ha): 10%
- pest or weed control at 125 g/ha ([1]; 125 g ai/ha): 15%
- pest or weed control at 16 g/ha ([2]; 16 g ai/ha): 5%
- pest or weed control at 31 g/ha ([2]; 31 g ai/ha): 5%
- pest or weed control at 62 g/ha ([2]; 62 g ai/ha): 10%
- pest or weed control at 125 g/ha ([2]; 125 g ai/ha): 35%
- pest or weed control at 16 g/ha ([3]; 16 g ai/ha): 0%
- pest or weed control at 31 g/ha ([3]; 31 g ai/ha): 30%
- pest or weed control at 62 g/ha ([3]; 62 g ai/ha): 75%
- pest or weed control at 125 g/ha ([3]; 125 g ai/ha): 95%
- pest or weed control at 16 g/ha ([4]; 16 g ai/ha): 40%
- pest or weed control at 31 g/ha ([4]; 31 g ai/ha): 70%
- pest or weed control at 62 g/ha ([4]; 62 g ai/ha): 70%
- pest or weed control at 125 g/ha ([4]; 125 g ai/ha): 100%
- Corn plant response rating (crop injury, 0 = no effect, 100 = complete kill) at 16 g/ha (corn (Zea mays); 16 g ai/ha): 5%
- Corn plant response rating (crop injury, 0 = no effect, 100 = complete kill) at 31 g/ha (corn (Zea mays); 31 g ai/ha): 5%
- Corn plant response rating (crop injury, 0 = no effect, 100 = complete kill) at 62 g/ha (corn (Zea mays); 62 g ai/ha): 5%
- Corn plant response rating (crop injury, 0 = no effect, 100 = complete kill) at 125 g/ha (corn (Zea mays); 125 g ai/ha): 5%
- pest or weed control at 16 g/ha ([5]; 16 g ai/ha): 5%
- pest or weed control at 31 g/ha ([5]; 31 g ai/ha): 5%
- pest or weed control at 62 g/ha ([5]; 62 g ai/ha): 15%
- pest or weed control at 125 g/ha ([5]; 125 g ai/ha): 35%
- pest or weed control at 16 g/ha ([6]; 16 g ai/ha): 0%
- pest or weed control at 31 g/ha ([6]; 31 g ai/ha): 5%
- pest or weed control at 62 g/ha ([6]; 62 g ai/ha): 10%
- pest or weed control at 125 g/ha ([6]; 125 g ai/ha): 45%
- pest or weed control at 16 g/ha ([7]; 16 g ai/ha): 60%
- pest or weed control at 31 g/ha ([7]; 31 g ai/ha): 80%
- pest or weed control at 62 g/ha ([7]; 62 g ai/ha): 90%
- pest or weed control at 125 g/ha ([7]; 125 g ai/ha): 95%
- plant injury at 31 g/ha ([8]; 31 g ai/ha): 50%
- plant injury at 62 g/ha ([8]; 62 g ai/ha): 65%
- plant injury at 125 g/ha ([8]; 125 g ai/ha): 50%
- pest or weed control at 31 g/ha ([9]; 31 g ai/ha): 85%
- pest or weed control at 62 g/ha ([9]; 62 g ai/ha): 90%
- pest or weed control at 125 g/ha ([9]; 125 g ai/ha): 98%
- pest or weed control at 31 g/ha ([10]; 31 g ai/ha): 75%
- pest or weed control at 62 g/ha ([10]; 62 g ai/ha): 65%
- pest or weed control at 125 g/ha ([10]; 125 g ai/ha): 80%
- plant injury at 31 g/ha (soybean (Glycine max); 31 g ai/ha): 55%
- plant injury at 62 g/ha (soybean (Glycine max); 62 g ai/ha): 75%
- plant injury at 125 g/ha (soybean (Glycine max); 125 g ai/ha): 70%
- pest or weed control at 31 g/ha ([11]; 31 g ai/ha): 70%
- pest or weed control at 62 g/ha ([11]; 62 g ai/ha): 80%
- pest or weed control at 125 g/ha ([11]; 125 g ai/ha): 90%
- pest or weed control at 31 g/ha (wild oat (Avena fatua); 31 g ai/ha): 5%
- pest or weed control at 62 g/ha (wild oat (Avena fatua); 62 g ai/ha): 20%
- pest or weed control at 125 g/ha (wild oat (Avena fatua); 125 g ai/ha): 60%
- pest or weed control at 31 g/ha ([12]; 31 g ai/ha): 0%
- pest or weed control at 62 g/ha ([12]; 62 g ai/ha): 0%
- pest or weed control at 125 g/ha ([12]; 125 g ai/ha): 5%
